Where two headings read alike, the source gives them in different places.
What was measured:
[1] = Biodistribution of 99mTc complexes in mice; format: in vivo, Balb/c mice
In short: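 Chelator (approx. 1 mg/ml final) labelled with 99mTc via excess stannous chloride at pH approx. 6, labelling efficacy checked by ITLC-SG. Complexes diluted to 15 μCi/100 μl in saline before dosing to mice.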

[2] = Biodistribution of 99mTc complexes in rats; format: in vivo, Australian Albino Wistar Rats; settings: for tissue uptake at 0.5 min / tissue uptake at 1 min / tissue uptake at 0.05 h / tissue uptake at 5 min / tissue uptake at 10 min: rat; for tissue uptake at 0.5 min: 30 sec
In short: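 Chelators were dissolved in basic saline, brought to about pH 6 with HCl, and reduced with excess stannous chloride before one equivalent volume of sodium 99mTcO4 (10-50 mCi/ml) was added, giving roughly 1 mg/ml chelator. Labelling efficacy was checked by ITLC-SG. Complexes were diluted in saline to 15 μCi/100 μl for rat biodistribution, with tissue uptake expressed as %ID/g.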

[3] = blood, rats, read-out: biodistribution blood
[4] = bone, rats, read-out: biodistribution bone
[5] = brain, rats, read-out: biodistribution brain
[6] = eyes, rats, read-out: biodistribution eyes
[7] = heart, rats, read-out: biodistribution heart
[8] = kidneys, rats, read-out: biodistribution kidneys
[9] = liver, rats, read-out: biodistribution liver
[10] = lungs, rats, read-out: biodistribution lungs
[11] = muscle, rats, read-out: biodistribution muscle
[12] = pancreas, rats, read-out: biodistribution pancreas
[13] = skin, rats, read-out: biodistribution skin
[14] = spleen, rats, read-out: biodistribution spleen
[15] = stomach, rats, read-out: biodistribution stomach
[16] = tail, rats, read-out: biodistribution tail
[17] = thymus, rats, read-out: biodistribution thymus
[18] = thyroid, rats, read-out: biodistribution thyroid
[19] = total git, rats, read-out: biodistribution tot GIT

CC(C)(C)c1ccc(O)c(NC(=O)CN(CCN(CC(=O)O)CC(=O)Nc2cc(C(C)(C)C)ccc2O)CC(=O)O)c1 [Compound 4]
biodistribution GIT ([1]; 1 min): 3.96 % Injected dose | biodistribution bladder ([1]; 1 min): 0.06 % Injected dose | biodistribution blood ([1]; 1 min): 34.01 % Injected dose | biodistribution bone ([1]; 1 min): 6.4 % Injected dose | biodistribution heart ([1]; 1 min): 0.6 % Injected dose | biodistribution kidney ([1]; 1 min): 7.83 % Injected dose | biodistribution liver ([1]; 1 min): 31.82 % Injected dose | biodistribution lungs ([1]; 1 min): 1.29 % Injected dose | biodistribution muscle ([1]; 1 min): 11.85 % Injected dose | biodistribution skin ([1]; 1 min): 8.94 % Injected dose | biodistribution spleen ([1]; 1 min): 0.21 % Injected dose | biodistribution stomach ([1]; 1 min): 0.52 % Injected dose | biodistribution tail ([1]; 1 min): 4.62 % Injected dose | biodistribution urine ([1]; 1 min): 0 % Injected dose | biodistribution GIT ([1]; 3 min): 8.34 % Injected dose | biodistribution bladder ([1]; 3 min): 0.09 % Injected dose | biodistribution blood ([1]; 3 min): 12.06 % Injected dose | biodistribution bone ([1]; 3 min): 2.5 % Injected dose | biodistribution heart ([1]; 3 min): 0.22 % Injected dose | biodistribution kidney ([1]; 3 min): 6.27 % Injected dose | biodistribution liver ([1]; 3 min): 40.23 % Injected dose | biodistribution lungs ([1]; 3 min): 0.56 % Injected dose | biodistribution muscle ([1]; 3 min): 9.92 % Injected dose | biodistribution skin ([1]; 3 min): 9.02 % Injected dose | biodistribution spleen ([1]; 3 min): 0.12 % Injected dose | biodistribution stomach ([1]; 3 min): 0.61 % Injected dose | biodistribution tail ([1]; 3 min): 2.02 % Injected dose | biodistribution urine ([1]; 3 min): 0.84 % Injected dose | biodistribution GIT ([1]; 5 min): 13.7 % Injected dose | biodistribution bladder ([1]; 5 min): 0.04 % Injected dose | biodistribution blood ([1]; 5 min): 7.87 % Injected dose | biodistribution bone ([1]; 5 min): 2.84 % Injected dose | biodistribution heart ([1]; 5 min): 0.16 % Injected dose | biodistribution kidney ([1]; 5 min): 4.18 % Injected dose | biodistribution liver ([1]; 5 min): 30.24 % Injected dose | biodistribution lungs ([1]; 5 min): 0.68 % Injected dose | biodistribution muscle ([1]; 5 min): 7.77 % Injected dose | biodistribution skin ([1]; 5 min): 8.67 % Injected dose | biodistribution spleen ([1]; 5 min): 0.1 % Injected dose | biodistribution stomach ([1]; 5 min): 3.96 % Injected dose | biodistribution tail ([1]; 5 min): 4.63 % Injected dose | biodistribution urine ([1]; 5 min): 1.55 % Injected dose | biodistribution GIT ([1]; 10 min): 33.63 % Injected dose | biodistribution bladder ([1]; 10 min): 0.17 % Injected dose | biodistribution blood ([1]; 10 min): 5.04 % Injected dose | biodistribution bone ([1]; 10 min): 2.08 % Injected dose | biodistribution heart ([1]; 10 min): 0.13 % Injected dose | biodistribution kidney ([1]; 10 min): 3.57 % Injected dose | biodistribution liver ([1]; 10 min): 21.19 % Injected dose | biodistribution lungs ([1]; 10 min): 0.52 % Injected dose | biodistribution muscle ([1]; 10 min): 4.95 % Injected dose | biodistribution skin ([1]; 10 min): 7.3 % Injected dose | biodistribution spleen ([1]; 10 min): 0.07 % Injected dose | biodistribution stomach ([1]; 10 min): 0.7 % Injected dose | biodistribution tail ([1]; 10 min): 3.58 % Injected dose | biodistribution urine ([1]; 10 min): 4.27 % Injected dose | biodistribution GIT ([1]; 30 min): 39.97 % Injected dose | biodistribution bladder ([1]; 30 min): 0.08 % Injected dose | biodistribution blood ([1]; 30 min): 3.88 % Injected dose | biodistribution bone ([1]; 30 min): 1.67 % Injected dose | biodistribution heart ([1]; 30 min): 0.05 % Injected dose | biodistribution kidney ([1]; 30 min): 3.67 % Injected dose | biodistribution liver ([1]; 30 min): 12.48 % Injected dose | biodistribution lungs ([1]; 30 min): 0.26 % Injected dose | biodistribution muscle ([1]; 30 min): 3.35 % Injected dose | biodistribution skin ([1]; 30 min): 4 % Injected dose | biodistribution spleen ([1]; 30 min): 0.06 % Injected dose | biodistribution stomach ([1]; 30 min): 4.84 % Injected dose | biodistribution tail ([1]; 30 min): 1.91 % Injected dose | biodistribution urine ([1]; 30 min): 3.21 % Injected dose | hepatobiliary passage ([2]; Tables 2 and 4): specifically traverse the hepatobiliary system | tissue uptake at 0.5 min [2, 3]: 5.84 %ID/g | tissue uptake at 1 min [2, 3]: 3.96 %ID/g | tissue uptake at 0.05 h ([2]; blood, rats, 3 minutes, selected data, read-out: Blood): 1.71 %ID/g | tissue uptake at 5 min [2, 3]: 1.33 %ID/g | tissue uptake at 10 min [2, 3]: 0.99 %ID/g | tissue uptake at 0.5 min [2, 4]: 0.61 %ID/g | tissue uptake at 1 min [2, 4]: 0.54 %ID/g | tissue uptake at 0.05 h ([2]; bone, rats, 3 min, read-out: biodistribution bone): 0.32 %ID/g | tissue uptake at 5 min [2, 4]: 0.26 %ID/g | tissue uptake at 10 min [2, 4]: 0.19 %ID/g | tissue uptake at 0.5 min [2, 5]: 0.43 %ID/g | tissue uptake at 1 min [2, 5]: 0.26 %ID/g | tissue uptake at 0.05 h ([2]; brain, rats, 3 min, read-out: biodistribution brain): 0.12 %ID/g | tissue uptake at 5 min [2, 5]: 0.08 %ID/g | tissue uptake at 10 min [2, 5]: 0.06 %ID/g | tissue uptake at 0.5 min [2, 6]: 0.22 %ID/g | tissue uptake at 1 min [2, 6]: 0.19 %ID/g | tissue uptake at 0.05 h ([2]; eyes, rats, 3 min, read-out: biodistribution eyes): 0.15 %ID/g | tissue uptake at 5 min [2, 6]: 0.13 %ID/g | tissue uptake at 10 min [2, 6]: 0.16 %ID/g | tissue uptake at 0.5 min [2, 7]: 1.78 %ID/g | tissue uptake at 1 min [2, 7]: 1.26 %ID/g | tissue uptake at 0.05 h ([2]; heart, rats, 3 min, read-out: biodistribution heart): 0.65 %ID/g | tissue uptake at 5 min [2, 7]: 0.48 %ID/g | tissue uptake at 10 min [2, 7]: 0.36 %ID/g | tissue uptake at 0.05 h ([2]; kidney, rats, 3 minutes, selected data, read-out: Kidney): 4.54 %ID/g | tissue uptake at 0.5 min [2, 8]: 5.57 %ID/g | tissue uptake at 1 min [2, 8]: 4.86 %ID/g | tissue uptake at 0.05 h ([2]; kidneys, rats, 3 min, read-out: biodistribution kidneys): 4.54 %ID/g | tissue uptake at 5 min [2, 8]: 3.89 %ID/g | tissue uptake at 10 min [2, 8]: 2.33 %ID/g | tissue uptake at 0.5 min [2, 9]: 6.83 %ID/g | tissue uptake at 1 min [2, 9]: 8.03 %ID/g | tissue uptake at 0.05 h ([2]; liver, rats, 3 minutes, selected data, read-out: Liver): 7.89 %ID/g | tissue uptake at 5 min [2, 9]: 7.39 %ID/g | tissue uptake at 10 min [2, 9]: 4.9 %ID/g | tissue uptake at 0.5 min [2, 10]: 2.37 %ID/g | tissue uptake at 1 min [2, 10]: 1.67 %ID/g | tissue uptake at 0.05 h ([2]; lungs, rats, 3 min, read-out: biodistribution lungs): 1 %ID/g | tissue uptake at 5 min [2, 10]: 0.66 %ID/g | tissue uptake at 10 min [2, 10]: 0.53 %ID/g | tissue uptake at 0.5 min [2, 11]: 0.36 %ID/g | tissue uptake at 1 min [2, 11]: 0.29 %ID/g | tissue uptake at 0.05 h ([2]; muscle, rats, 3 min, read-out: biodistribution muscle): 0.22 %ID/g | tissue uptake at 5 min [2, 11]: 0.18 %ID/g | tissue uptake at 10 min [2, 11]: 0.13 %ID/g | tissue uptake at 0.5 min [2, 12]: 0.9 %ID/g | tissue uptake at 1 min [2, 12]: 0.69 %ID/g | tissue uptake at 0.05 h ([2]; pancreas, rats, 3 min, read-out: biodistribution pancreas): 0.55 %ID/g | tissue uptake at 5 min [2, 12]: 0.32 %ID/g | tissue uptake at 10 min [2, 12]: 0.39 %ID/g | tissue uptake at 0.5 min [2, 13]: 0.53 %ID/g | tissue uptake at 1 min [2, 13]: 0.51 %ID/g | tissue uptake at 0.05 h ([2]; skin, rats, 3 min, read-out: biodistribution skin): 0.46 %ID/g | tissue uptake at 5 min [2, 13]: 0.37 %ID/g | tissue uptake at 10 min [2, 13]: 0.36 %ID/g | tissue uptake at 0.5 min [2, 14]: 0.93 %ID/g | tissue uptake at 1 min [2, 14]: 0.8 %ID/g | tissue uptake at 0.05 h ([2]; spleen, rats, 3 min, read-out: biodistribution spleen): 0.42 %ID/g | tissue uptake at 5 min [2, 14]: 0.32 %ID/g | tissue uptake at 10 min [2, 14]: 0.27 %ID/g | tissue uptake at 0.5 min [2, 15]: 1.04 %ID/g | tissue uptake at 1 min [2, 15]: 0.95 %ID/g | tissue uptake at 0.05 h ([2]; stomach, rats, 3 min, read-out: biodistribution stomach): 3.09 %ID/g | tissue uptake at 5 min [2, 15]: 2.71 %ID/g | tissue uptake at 10 min [2, 15]: 3.8 %ID/g | tissue uptake at 0.5 min [2, 16]: 1.03 %ID/g | tissue uptake at 1 min [2, 16]: 0.53 %ID/g | tissue uptake at 0.05 h ([2]; tail, rats, 3 min, read-out: biodistribution tail): 0.39 %ID/g | tissue uptake at 5 min [2, 16]: 1.23 %ID/g | tissue uptake at 10 min [2, 16]: 0.32 %ID/g | tissue uptake at 0.5 min [2, 17]: 0.66 %ID/g | tissue uptake at 1 min [2, 17]: 0.49 %ID/g | tissue uptake at 0.05 h ([2]; thymus, rats, 3 min, read-out: biodistribution thymus): 0.31 %ID/g | tissue uptake at 5 min [2, 17]: 0.22 %ID/g | tissue uptake at 10 min [2, 17]: 0.19 %ID/g | tissue uptake at 0.5 min [2, 18]: 3.49 %ID/g | tissue uptake at 1 min [2, 18]: 2.28 %ID/g | tissue uptake at 0.05 h ([2]; thyroid, rats, 3 min, read-out: biodistribution thyroid): 1.11 %ID/g | tissue uptake at 5 min [2, 18]: 0.89 %ID/g | tissue uptake at 10 min [2, 18]: 0.79 %ID/g | tissue uptake at 0.5 min [2, 19]: 0.61 %ID/g | tissue uptake at 1 min [2, 19]: 0.74 %ID/g | tissue uptake at 0.05 h ([2]; total git, rats, 3 min, read-out: biodistribution tot GIT): 1.59 %ID/g | tissue uptake at 5 min [2, 19]: 2.62 %ID/g | tissue uptake at 10 min [2, 19]: 5.16 %ID/g | tissue uptake at 10 min ([2]; urine, rats, read-out: biodistribution urine): 0.08 %ID/g | liver versus kidney uptake ([2]; rats): preference for the liver uptake as opposed to the kidney | biodistribution blood ([2]; rats, 3 min): 1.71 % Injected dose per gram | biodistribution liver ([2]; rats, 3 min): 7.89 % Injected dose per gram

— patent publication US5807535A, “Metal complexes of hydroxyaryl containing aminocarboxylic acid chelating agents” (Australian Nuclear Science & Technology Organisation, priority 1992, dated 1998)
